Tests used:
[1] = tested on: NV in replicon-harboring cells; test: cell-based norovirus replicon system (NV replicon-harboring cells, HG23); conditions: Norwalk virus, α-hydroxyphosphonates, mixtures of epimers
[2] = biological target: NV 3CL protease (Norovirus, UniProt Q83883); test: biochemical; set-up: species or system norovirus strain Norwalk
[3] = tested on: cells; test: cell cytotoxicity (microscopy and CytoTox 96 assay); type: cell-based
Excerpt: Cell Cytotoxicity. The nonspecific cytotoxic effects of each compound on cells were monitored by observation under a microscopy and CytoTox 96 Non-radioactive cytotoxicity assay (Promega, Madison, Wis.).

[4] = biological target: SARS-CoV 3CL protease (Severe acute respiratory syndrome coronavirus, UniProt P0C6X7); test: biochemical
[5] = biological target: EV71 3C protease (Human enterovirus 71, UniProt Q66478); test: biochemical
Sequence of EV71 3C protease (Q66478 1549-1731 limits assumed): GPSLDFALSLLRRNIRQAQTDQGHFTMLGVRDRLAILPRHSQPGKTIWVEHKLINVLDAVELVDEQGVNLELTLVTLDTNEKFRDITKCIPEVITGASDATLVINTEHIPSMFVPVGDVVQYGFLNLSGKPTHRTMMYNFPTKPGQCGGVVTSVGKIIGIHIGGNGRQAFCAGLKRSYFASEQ

Sequence of NV 3CL protease (Q83883 1101-1281 limits assumed): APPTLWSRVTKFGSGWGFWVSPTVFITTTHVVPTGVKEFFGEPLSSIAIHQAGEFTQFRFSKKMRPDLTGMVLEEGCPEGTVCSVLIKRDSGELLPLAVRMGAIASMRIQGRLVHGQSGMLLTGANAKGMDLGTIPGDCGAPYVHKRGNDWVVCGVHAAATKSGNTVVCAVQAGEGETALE

Row | SMILES | EC50 [1] | IC50 [2] | toxicity to cells (no toxicity up to) [3] | IC50 [4] | IC50 [5]
1 | CCOP(=O)(OCC)C(O)[C@H](CC1CCNC1=O)NC(=O)[C@H](CC(C)C)NC(=O)OCc1ccccc1 (mixture of isomers) [Compound 7a] | 1.1 µM | > 50000 nM |  |  | 
2 | COP(=O)(OC)C(O)[C@H](CC1CCNC1=O)NC(=O)[C@H](CC(C)C)NC(=O)OCc1ccccc1 (mixture of isomers) [Compound 7b] | 3.5 µM | > 50000 nM |  |  | 
3 | CC(C)C[C@H](NC(=O)OCc1ccccc1)C(=O)N[C@@H](CC1CCNC1=O)C(O)P(=O)(O)O (mixture of isomers) [Compound 7c] | 0.8 µM | > 50000 nM |  |  | 
4 | CCOP(=O)(OCC)C(O)[C@H](CC1CCNC1=O)NC(=O)[C@H](CC1CCCCC1)NC(=O)OCc1ccccc1 (mixture of isomers) [Compound 7d] | 0.25 µM | > 50000 nM |  |  | 
5 | COP(=O)(OC)C(O)[C@H](CC1CCNC1=O)NC(=O)[C@H](CC1CCCCC1)NC(=O)OCc1ccccc1 (mixture of isomers) [Compound 7e] | 2.8 µM | > 50000 nM |  |  | 
6 | CCCCOP(=O)(OCCCC)C(O)[C@H](CC1CCNC1=O)NC(=O)[C@H](CC1CCCCC1)NC(=O)OCc1ccccc1 (mixture of isomers) [Compound 7f] | 0.5 µM | > 50000 nM |  |  | 
7 | O=C(N[C@@H](CC1CCCCC1)C(=O)N[C@@H](CC1CCNC1=O)C(O)P(=O)(OCC(F)(F)F)OCC(F)(F)F)OCc1ccccc1 (mixture of isomers) [Compound 7g] | 0.25 µM | > 50000 nM |  |  | 
8 | O=C(N[C@@H](CC1CCCCC1)C(=O)N[C@@H](CC1CCNC1=O)C(O)P(=O)(OCc1ccccc1)OCc1ccccc1)OCc1ccccc1 (mixture of isomers) [Compound 7h] | 0.6 µM | > 50000 nM |  |  | 
9 | O=CC(CC1CCNC1=O)NC(=O)C(CC1CCCCC1)N1C(=O)CCC(NC(=O)OCc2ccccc2)C1=O (centres unmarked) [Compound 5, Benzyl(1-(3-cyclohexyl-1-oxo-1-((1-oxo-3-(2-oxopyrrolidin-3-yl)propan-2-yl)amino)propan-2-yl)-2,6-dioxopperidin-3-yl)carbamate] |  |  | > 150 µM |  | 
10 | CC(C)C[C@@H]1NC(=O)[C@@H](NC(=O)OCc2ccccc2)Cc2cn(nn2)CCCNC(=O)CC[C@@H](C=O)NC1=O [Compound 13, Benzyl(9-formyl-12-isobutyl-6,11,14-trioxo-1,5,10,13,18,19-hexaazabicyclo[15.2.1]icosa-17(20),18-dien-15-yl)carbamate] |  | 5100 nM |  | 15500 nM | 1800 nM

Source: US9309284B2 (priority 2012, dated 2016)
